Results from patent US20070292888A1, “Methods for Measuring Enzyme Activities in Cells, Blood, Tumors and Tissues” (GEN-PATH PHARMACEUTICALS, INC., priority 2004, published 2007).

How the values were obtained:
[1] = molecular target: T1, glucose-6-phosphate dehydrogenase (G6PDH) (Mus musculus, UniProt Q00612); experiment: Glucose-6-phosphate dehydrogenase activity in tissues of treated mice (fluorescence NADPH assay); format: in vivo; details: 11 days i.p. twice per day, various organs
T1 construct: from tissue; host or cells: mouse tumor, blood, brain, heart, kidney, liver, lung, spleen (crude lysates)
T1 sequence (Q00612 whole entry): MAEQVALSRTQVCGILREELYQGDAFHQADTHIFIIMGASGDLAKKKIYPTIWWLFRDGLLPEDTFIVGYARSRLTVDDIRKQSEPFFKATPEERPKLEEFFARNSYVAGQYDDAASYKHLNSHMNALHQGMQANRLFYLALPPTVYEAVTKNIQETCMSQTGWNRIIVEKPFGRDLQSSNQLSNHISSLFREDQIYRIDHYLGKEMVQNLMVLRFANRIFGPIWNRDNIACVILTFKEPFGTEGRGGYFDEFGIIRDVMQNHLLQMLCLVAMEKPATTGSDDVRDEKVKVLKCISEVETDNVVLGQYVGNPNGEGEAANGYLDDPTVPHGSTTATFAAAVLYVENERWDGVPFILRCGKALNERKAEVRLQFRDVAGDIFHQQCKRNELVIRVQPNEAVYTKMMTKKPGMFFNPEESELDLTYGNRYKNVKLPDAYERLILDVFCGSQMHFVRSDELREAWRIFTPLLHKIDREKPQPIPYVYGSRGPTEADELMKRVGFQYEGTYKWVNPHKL
Method: Blood samples from mice were taken (40 μl whole blood) serially or from mice sacrificed at the end of the experiment. Tissues, such as tumors (e.g. from implantation, xenograft, or arising spontaneously), brain, heart, kidney, liver, lung and spleen were taken and flash frozen in liquid nitrogen or on dry ice and stored in −80° C. until time of assay. Four volumes of cold lysis buffer (20 mM HEPES, pH 7.5, 1 mM EDTA, 0.2 g/l Triton X-100® and 0.2 g/L sodium deoxycholate, supplemented with 1 mM DTT and 1 mM PMSF just before use) were added to the blood, which was dissolved by vortexing. For blood that was frozen before coagulation, a clear lysate was obtained. […]
Each reaction was monitored for the appearance of NADH (for transketolase, alpha-ketoglutarate dehydrogenase, pyruvate dehydrogenase) or NADPH (for glucose-6-phosphate dehydrogenase) at room temperature in a fluorescent plate reader with excitation at 340 nm and emission at 470 nm in kinetic mode. The velocity was determined by the slope of the initial linear range of increasing fluorescence, expressed in fluorescent units (FU)/min. The protein concentration in the lysate was determined using Bradford assays (BioRad) with BSA as a standard. […]
We measured enzyme activity in an expanded panel of tissues from mice treated with N3PT or OxyT for 11 days i.p., twice per day. […]

transketolase (TK) = molecular target: T2, transketolase (TK) (Mus musculus, UniProt P40142); experiment: Transketolase activity in blood, tumors and tissues of treated mice (fluorescence NADH assay); format: in vivo; details: 11 days i.p. twice per day
T2 construct: from tissue; host or cells: mouse blood, spleen, tumor, kidney, lung, liver (crude lysates)
T2 sequence (P40142 1-623): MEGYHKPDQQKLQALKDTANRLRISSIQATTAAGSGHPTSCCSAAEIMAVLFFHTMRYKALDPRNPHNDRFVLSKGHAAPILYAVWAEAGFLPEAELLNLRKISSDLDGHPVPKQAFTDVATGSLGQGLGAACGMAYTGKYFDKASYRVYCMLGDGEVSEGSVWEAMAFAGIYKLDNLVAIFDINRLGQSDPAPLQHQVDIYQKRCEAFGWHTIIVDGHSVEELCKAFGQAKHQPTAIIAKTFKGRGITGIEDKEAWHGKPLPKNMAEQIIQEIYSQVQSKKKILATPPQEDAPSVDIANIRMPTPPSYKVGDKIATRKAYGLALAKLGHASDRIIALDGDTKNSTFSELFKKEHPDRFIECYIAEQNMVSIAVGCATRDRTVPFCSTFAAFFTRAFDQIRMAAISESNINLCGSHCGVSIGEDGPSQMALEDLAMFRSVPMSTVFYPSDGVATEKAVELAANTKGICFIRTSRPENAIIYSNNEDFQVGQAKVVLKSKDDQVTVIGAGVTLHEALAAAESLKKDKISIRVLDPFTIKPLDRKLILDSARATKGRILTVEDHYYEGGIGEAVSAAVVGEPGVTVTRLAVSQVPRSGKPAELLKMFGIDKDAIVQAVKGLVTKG
Method: Blood samples from mice were taken (40 μl whole blood) serially or from mice sacrificed at the end of the experiment. Tissues, such as tumors (e.g. from implantation, xenograft, or arising spontaneously), brain, heart, kidney, liver, lung and spleen were taken and flash frozen in liquid nitrogen or on dry ice and stored in −80° C. until time of assay. Four volumes of cold lysis buffer (20 mM HEPES, pH 7.5, 1 mM EDTA, 0.2 g/l Triton X-100® and 0.2 g/L sodium deoxycholate, supplemented with 1 mM DTT and 1 mM PMSF just before use) were added to the blood, which was dissolved by vortexing. For blood that was frozen before coagulation, a clear lysate was obtained. If coagulation occurred, homogenization was used as described below for tissue. Tissues were suspended in lysis buffer in 10 ml round bottom tubes and homogenized with PowerGen 125® (Fisher Scientific) for four seconds at highest power while submerged in an ice-water bath. This step was repeated after a few seconds, as necessary. The lysate was used right away or else flash frozen and stored at −80° C. until assay time. Eighty microliters (80 μl) of lysate (containing 5 mg tissue/ml lysate for TK and kGDH, 0.5 mg/ml for G6PDH) were put directly in individual wells of a 96-well clear-bottomed assay plate. Twenty microliters (20 μl) of 5× reaction mix was added to initiate each enzymatic reaction.
Each reaction was monitored for the appearance of NADH (for transketolase, alpha-ketoglutarate dehydrogenase, pyruvate dehydrogenase) or NADPH (for glucose-6-phosphate dehydrogenase) at room temperature in a fluorescent plate reader with excitation at 340 nm and emission at 470 nm in kinetic mode. The velocity was determined by the slope of the initial linear range of increasing fluorescence, expressed in fluorescent units (FU)/min. The protein concentration in the lysate was determined using Bradford assays (BioRad) with BSA as a standard. The enzymatic velocity was normalized by the total protein concentration for inter-sample comparison. To obtain reliable results across samples, similar starting protein concentrations were prepared (within approximately 30%) so that the normalized velocity required only small adjustments. This was achieved by weighing the tissue and putting in lysis buffer so that the suspensions contained the same amount of tissue/ml lysis buffer for all samples.
For TK, 15 μl of 5× assay buffer containing final concentrations of 50 mM HEPES, 40 mM KCl, 2.5 mM MgCl2, 5 mM NaArsenate, 1 mM NAD, 2 unit/ml glyceraldehydes-3-phosphate dehydrogenase (GAPDH) was added to 80 μl of lysate. Reaction kinetics were monitored on a fluorescent plate reader to allow any possible background activity via GAPDH to burn out. Then 5 μl of substrate mix containing final concentrations of 0.5 mM ribose-5-phosphate and 0.5 mM xylulose-5-phosphate was added to initiate the reaction. The reaction kinetics were monitored using a fluorescent plate reader, and the slope of the initial linear range was recorded as the velocity of the reaction (FU/min). See FIG. 1 for the reaction scheme.
To investigate the amount of in vivo enzyme inhibition following treatment with an inhibitor, we administered a single dose of N3PT (100 mg/kg, intraperitoneally [i.p.]) and blood, spleen and brain samples were collected at various times from 0-120 hours after dosing. The enzymatic activities were determined as described in Example 1. TK activity was measured in blood and spleen. Because TK activity in the brain is below the detection limit of the assay, kGDH activity was measured in brain samples. Measurements were taken at various time intervals
We measured enzyme activity in an expanded panel of tissues from mice treated with N3PT or OxyT for 11 days i.p., twice per day. Samples were taken from tumors, blood, brain, heart, kidney, lung and spleen, and TK, kGDH and G6PDH activities were determined as described above.

Structure (SMILES): Cc1ncc(C[n+]2csc(CCO)c2C)c(=O)[nH]1 [OxyT, oxythiamine]
- G6PDH enzymatic activity following treatment [1]: no significant decrease
- percent inhibition of TK activity in tumors (transketolase (TK); 100 mg/kg, compared to vehicle control): 40%
- liver enzymatic (TK) activity (transketolase (TK); liver): hardly affected
